Test results reported in patent US10722478B2, “Methods and compositions for treating fatigue associated with disordered sleep using very low dose cyclobenzaprine” (Tonix Pharma Holdings Limited, priority 2010, dated 2020).

What was measured:
[1] = tested on: person diagnosed with multiple sclerosis; settings: 2 mg then 4 mg at bedtime
Experimental: A person was diagnosed with multiple sclerosis three years ago. […] However, they have noted that throughout the day they have very low energy levels. Their capacity for physical and mental work has declined to the point where they are unable to function at work. They report getting 6 to 8 hours of sleep each night but feels unrefreshed in the morning. […] They began taking cyclobenzaprine initially at a dose of 2 mg at bedtime. Their doctor increased the dose to 4 mg at bedtime. […] Their doctor asks them to assess their level of fatigue on a scale of 1 to 10 before and after cyclobenzaprine treatment.

[2] = tested on: person with traumatic brain injury; settings: 5 mg at bedtime; within three weeks
Experimental: A person survived a serious motor vehicle accident with closed head trauma. They underwent six months of physical rehabilitation. […] Because of the spasticity, the neurologist recommended six months of additional physical rehabilitation. […], characterized by both difficulty falling asleep and early-morning awakening. Their neurologist prescribed cyclobenzaprine at a dose of 5 mg at bedtime.

fibromyalgia patients = settings: 10 to 40 mg over a 12-week period; cited from earlier work
FM patients = settings: response threshold CAPA2+A3(Norm)≤33%; ITT, LOCF; vs. 33% with placebo, p=0.019
Experimental: Therefore, an analysis of sleep EEC CAP was performed that measured subtypes CAP A1, CAP A2, and CAP A3 and Total CAP (or CAP A1+A2+A3). Subtype CAP A1 is associated with sleep maintenance or least sleep instability, and subtypes CAP A2 and A3 are associated with moderate to prominent increases in sleep instability.
Because CAP A2 and A3 are most closely associated with sleep instability^26,27, the sum of CAPA2+CAPA3 rates (CAPA2+A3) was used as an indicator of disordered sleep. CAPA2+A3 was normalized (CAPA2+A3(Norm)) by dividing CAPA2+A3 by the total CAP rate (CAPtotal=CAPA1+CAPA2+CAPA3 rates=CAPA1+A2+A3) and expressed as a percentage. Therefore, CAPA2+A3(Norm)=100*CAPA2+A3/CAPA1+A2+A3 and this reflects the percentage of total CAP that is associated with sleep instability.
To determine whether patients experienced nights with a potential CAP response to treatment, it was necessary to determine an empirical threshold below which CAPA2+A3(Norm) values reflect a night of relatively stable sleep for this population. To determine a threshold for CAPA2+A3(Norm) that could be informative for a potential treatment response, the study CAP data were then evaluated by considering a range of cutoff values for CAPA2+A3(Norm) from ≤10% to ≤50%.
Data were coded such that improvements were positive.

Compound: CN(C)CCC=C1c2ccccc2C=Cc2ccccc21 [cyclobenzaprine, 3-(5H-dibenzo[a,d]cyclohepten-5-ylidene)-N,N-dimethyl-1-propanamine]
- level of energy during the day ([1]; with each dose): increased
- quality of sleep ([1]; with each dose): improved
- level of fatigue on a scale of 1 to 10 after treatment ([1]; before treatment 9/10): 3/10
- level of energy and concentration [2]: markedly better
- sleep [2]: improved substantially
- muscle tightness (fibromyalgia patients): reduction
- pain score (fibromyalgia patients): significantly improved
- quality of sleep (fibromyalgia patients): significantly improved
- total number of tender points (fibromyalgia patients): reduction
- percentage of patients with increased nights of CAP response while on treatment (FM patients): 72%
